This data set in a line: xn = mol fraction of the nth substance listed. The settings on record: Liquid, Gas absorption technique.

Data on seven compounds can be found in the NIST ThermoML archive (doi:10.1016/j.jct.2019.02.022).

With `CCn1cc[n+](C)c1.O=S(=O)([N-]S(=O)(=O)C(F)(F)F)C(F)(F)F` + O=C=O, the binary diffusion coefficient runs as follows: (303.15 K, 111.3 kPa, x2 = 0) 6.15e-10 m2/s; (313.15 K, 113.7 kPa, x2 = 0) 7.22e-10 m2/s; (323.15 K, 108.4 kPa, x2 = 0) 9.52e-10 m2/s; (333.15 K, 113.2 kPa, x2 = 0) 1.19e-09 m2/s; (343.15 K, 113.7 kPa, x2 = 0) 1.56e-09 m2/s.
`Cn1cc[n+](CCO)c1.O=S(=O)([N-]S(=O)(=O)C(F)(F)F)C(F)(F)F` + O=C=O: the binary diffusion coefficient is, setting by setting: (303.15 K, 106.2 kPa, x2 = 0) 1.31e-10 m2/s; (313.15 K, 109.9 kPa, x2 = 0) 2.67e-10 m2/s; (323.15 K, 111.2 kPa, x2 = 0) 3.97e-10 m2/s.
As to `Cn1cc[n+](CCO)c1.O=S(=O)([N-]S(=O)(=O)C(F)(F)F)C(F)(F)F` + S, the binary diffusion coefficient is, setting by setting: (303.15 K, 111.7 kPa, x2 = 0) 2.07e-10 m2/s; (313.15 K, 113.9 kPa, x2 = 0) 3.35e-10 m2/s; (323.15 K, 114.5 kPa, x2 = 0) 5.51e-10 m2/s.
Consider `Cn1cc[n+](CCO)c1.O=S(=O)([O-])C(F)(F)F` + S, for which the binary diffusion coefficient reads like this: (303.15 K, 107 kPa, x2 = 0) 2.28e-10 m2/s; (313.15 K, 109.6 kPa, x2 = 0) 2.93e-10 m2/s; (323.15 K, 113.9 kPa, x2 = 0) 3.66e-10 m2/s.
Take `Cn1cc[n+](CCO)c1.F[P-](F)(F)(F)(F)F` [3-(2-hydroxyethyl)-1-methylimidazolium hexafluorophosphate] + O=C=O: the binary diffusion coefficient (303.15 K, 105.6 kPa, x2 = 0) came out at 1.39e-10 m2/s; the binary diffusion coefficient (313.15 K, 109.3 kPa, x2 = 0) stood at 2.15e-10 m2/s; the binary diffusion coefficient (323.15 K, 110.6 kPa, x2 = 0) turned out to be 2.7e-10 m2/s.
For `Cn1cc[n+](CCO)c1.F[P-](F)(F)(F)(F)F` [3-(2-hydroxyethyl)-1-methylimidazolium hexafluorophosphate] + S, the binary diffusion coefficient (303.15 K, 111.3 kPa, x2 = 0) amounted to 1.55e-10 m2/s; the binary diffusion coefficient (313.15 K, 113.7 kPa, x2 = 0) came out at 2.37e-10 m2/s; the binary diffusion coefficient (323.15 K, 108.4 kPa, x2 = 0) was found to be 3.74e-10 m2/s.
As for `S` [hydrogen sulfide] + CCn1cc[n+](C)c1.O=S(=O)([N-]S(=O)(=O)C(F)(F)F)C(F)(F)F, the binary diffusion coefficient by setting is: (303.15 K, 109.8 kPa, x1 = 0) 7.98e-10 m2/s; (313.15 K, 108.6 kPa, x1 = 0) 9.06e-10 m2/s; (323.15 K, 109.4 kPa, x1 = 0) 1.17e-09 m2/s.
